# Results: the NIST ThermoML archive (doi:10.1021/je101184s)
# Numbers after ± are expanded uncertainties.
# Assay: relative permittivity at zero frequency (dimensionless)
# Conditions: 298.15 K; 101.33 kPa; Liquid; Coaxial cylinder capacitor
row,SMILES,relative permittivity at zero frequency
1,CCCC[n+]1c(C)c(C)n(C)c1C.F[B-](F)(F)F,12 ± 1.2
2,CCCCn1c(C)c(C)[n+](C)c1C.O=S(=O)([N-]S(=O)(=O)C(F)(F)F)C(F)(F)F,15 ± 1.6
3,CCCCn1cc[n+](C)c1C.O=S(=O)([N-]S(=O)(=O)C(F)(F)F)C(F)(F)F,14 ± 1.6
4,CCn1cc[n+](C)c1C.O=S(=O)([N-]S(=O)(=O)C(F)(F)F)C(F)(F)F,12.8 ± 0.8
5,"COP(=O)([O-])OC.Cn1cc[n+](C)c1 [1,3-dimethylimidazolium dimethylphosphate]",29.6 ± 3
6,C[n+]1ccn(CCO)c1.F[B-](F)(F)F [1-(2-hydroxyethyl)-3-methylimidazolium tetrafluoroborate],23.3 ± 2
7,CCCC[N+]1(C)CCCC1.N#CN=C=[N-] [1-butyl-1-methylpyrrolidinium dicyanamide],18 ± 1.6
8,"CCCCn1cc[n+](C)c1C.F[P-](F)(F)(F)(F)F [1-butyl-2,3-dimethylimidazolium hexafluorophosphate]",9.4 ± 2
9,"CCCCn1cc[n+](C)c1C.F[B-](F)(F)F [1-butyl-2,3-dimethylimidazolium tetrafluoroborate]",13.3 ± 1.2
10,CCCCn1cc[n+](C)c1.F[P-](F)(F)(F)(F)F [1-butyl-3-methylimidazolium hexafluorophosphate],14 ± 1.4
11,CCCCn1cc[n+](C)c1.F[B-](F)(F)F [1-butyl-3-methylimidazolium tetrafluoroborate],13.9 ± 0.8
12,CCCCn1cc[n+](C)c1.N#C[S-] [1-butyl-3-methylimidazolium thiocyanate],13.7 ± 1.6
13,CCCCn1cc[n+](C)c1.O=S(=O)([O-])C(F)(F)F [1-butyl-3-methylimidazolium trifluoromethanesulfonate],12.9 ± 1
14,CCCCS(=O)(=O)[O-].CCn1cc[n+](C)c1 [1-ethyl-3-methylimidazolium butylsulfonate],30 ± 3
15,CCOP(=O)([O-])OCC.CCn1cc[n+](C)c1 [1-ethyl-3-methylimidazolium diethyl phosphate],16.9 ± 1.6
16,CCOS(=O)(=O)[O-].CCn1cc[n+](C)c1 [1-ethyl-3-methylimidazolium ethyl sulfate],35 ± 3
17,CCn1cc[n+](C)c1.O=S(=O)([O-])O [1-ethyl-3-methylimidazolium hydrogen sulfate],18.4 ± 2
18,CCn1cc[n+](C)c1.O=S(=O)([O-])C(F)(F)F [1-ethyl-3-methylimidazolium trifluoromethanesulfonate],16.5 ± 1
19,Br.Cn1ccnc1 [1-methylimidazolium bromide],16.6 ± 2.4
20,Cl.Cn1ccnc1 [1-methylimidazolium chloride],13.8 ± 2
21,CC(=O)[O-].[NH3+]CCO [2-hydroxyethylammonium acetate],58.3 ± 5
22,CC(O)C(=O)[O-].[NH3+]CCO (stereo unspecified) [2-hydroxyethylammonium lactate],85.6 ± 8
23,O=[N+]([O-])[O-].[NH3+]CCO [ethanolammonium nitrate],60.9 ± 4
24,CC(O)C(=O)O.OCCN(CCO)CCO [triethanolamine lactate],59.7 ± 6
25,CC(=O)O.OCCN(CCO)CCO [triethanolammonium acetate],31 ± 3
26,CCCCC[N+](CC)(CC)CC.O=S(=O)([N-]S(=O)(=O)C(F)(F)F)C(F)(F)F [triethylpentylammonium bis(trifluoromethylsulfonyl)imide],12.5 ± 1.4
